Experimental data taken from PubChem BioAssay (NCI).
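These data come from cells grown in 96-well plates and exposed to compound for 48 hours at five concentrations. The concentration for full growth arrest is given as TGI.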

Columns and labels:
Assay in all cases: NCI tumour cell line growth inhibition, 48 h
DMS 114 small cell lung = system: DMS 114 small cell lung
A498 renal = system: A498 renal
NCI-H460 lung = system: NCI-H460 lung
NCI-H522 lung = system: NCI-H522 lung
NCI-H226 lung = system: NCI-H226 lung
OVCAR-5 ovarian = system: OVCAR-5 ovarian
UO-31 renal = system: UO-31 renal
OVCAR-8 ovarian = system: OVCAR-8 ovarian
RXF-631 renal = system: RXF-631 renal
SN12C renal = system: SN12C renal
LXFL 529 NSCLC = system: LXFL 529 NSCLC
CCRF-CEM leukemia = system: CCRF-CEM leukemia
HOP-18 NSCLC = system: HOP-18 NSCLC
SK-MEL-28 melanoma = system: SK-MEL-28 melanoma
COLO 205 colon = system: COLO 205 colon
EKVX NSCLC = system: EKVX NSCLC
SF-295 CNS = system: SF-295 CNS
SR leukemia = system: SR leukemia
SF-268 CNS = system: SF-268 CNS
MOLT-4 leukemia = system: MOLT-4 leukemia
786-0 renal = system: 786-0 renal
SK-OV-3 ovarian = system: SK-OV-3 ovarian
HOP-62 NSCLC = system: HOP-62 NSCLC
SF-539 CNS = system: SF-539 CNS
M14 melanoma = system: M14 melanoma
SNB-75 CNS = system: SNB-75 CNS
HCT-15 colon = system: HCT-15 colon
CAKI-1 renal = system: CAKI-1 renal
RXF 393 renal = system: RXF 393 renal
KM20L2 colon = system: KM20L2 colon
SNB-19 CNS = system: SNB-19 CNS
MALME-3M melanoma = system: MALME-3M melanoma
LOX IMVI melanoma = system: LOX IMVI melanoma
HL-60(TB) leukemia = system: HL-60(TB) leukemia
HCT-116 colon = system: HCT-116 colon
DLD-1 colon = system: DLD-1 colon
UACC-257 melanoma = system: UACC-257 melanoma
SK-MEL-5 melanoma = system: SK-MEL-5 melanoma
M19-MEL melanoma = system: M19-MEL melanoma
TK-10 renal = system: TK-10 renal
IGROV1 ovarian = system: IGROV1 ovarian
HOP-92 NSCLC = system: HOP-92 NSCLC
A549 NSCLC = system: A549 NSCLC
SK-MEL-2 melanoma = system: SK-MEL-2 melanoma
K-562 leukemia = system: K-562 leukemia
DMS 273 small cell lung = system: DMS 273 small cell lung
NCI-H23 lung = system: NCI-H23 lung
KM12 colon = system: KM12 colon
SNB-78 CNS = system: SNB-78 CNS
OVCAR-4 ovarian = system: OVCAR-4 ovarian
RPMI-8226 leukemia = system: RPMI-8226 leukemia
UACC-62 melanoma = system: UACC-62 melanoma
SW-620 colon = system: SW-620 colon
HCC-2998 colon = system: HCC-2998 colon
ACHN renal = system: ACHN renal
HT29 colon = system: HT29 colon
XF 498 CNS = system: XF 498 CNS
OVCAR-3 ovarian = system: OVCAR-3 ovarian
U251 CNS = system: U251 CNS

Cc1ccc(NC(=O)C2C3CCC(O3)C2C(=O)O)cc1 (centres undefined)
TGI (DMS 114 small cell lung): > 59.8 µM | TGI (A498 renal): > 75.7 µM | TGI (NCI-H460 lung): > 100 µM | TGI (NCI-H522 lung): > 100 µM | TGI (NCI-H226 lung): > 100 µM | TGI (OVCAR-5 ovarian): > 100 µM | TGI (UO-31 renal): > 100 µM | TGI (OVCAR-8 ovarian): > 100 µM | TGI (RXF-631 renal): > 100 µM | TGI (SN12C renal): > 81.4 µM | TGI (LXFL 529 NSCLC): > 74.6 µM | TGI (CCRF-CEM leukemia): > 75.5 µM | TGI (HOP-18 NSCLC): > 100 µM | TGI (SK-MEL-28 melanoma): > 100 µM | TGI (COLO 205 colon): > 59.8 µM | TGI (EKVX NSCLC): > 100 µM | TGI (SF-295 CNS): > 100 µM | TGI (SR leukemia): 43.6 µM | TGI (SF-268 CNS): > 73.2 µM | TGI (MOLT-4 leukemia): > 100 µM | TGI (786-0 renal): > 56.1 µM | TGI (SK-OV-3 ovarian): > 100 µM | TGI (HOP-62 NSCLC): > 100 µM | TGI (SF-539 CNS): > 100 µM | TGI (M14 melanoma): > 76.4 µM | TGI (SNB-75 CNS): > 100 µM | TGI (HCT-15 colon): > 65.3 µM | TGI (CAKI-1 renal): > 100 µM | TGI (RXF 393 renal): 48.6 µM | TGI (KM20L2 colon): > 57.8 µM | TGI (SNB-19 CNS): > 100 µM | TGI (MALME-3M melanoma): > 100 µM | TGI (LOX IMVI melanoma): > 54.8 µM | TGI (HL-60(TB) leukemia): > 60.6 µM | TGI (HCT-116 colon): > 54.7 µM | TGI (DLD-1 colon): 96.9 µM | TGI (UACC-257 melanoma): > 100 µM | TGI (SK-MEL-5 melanoma): > 100 µM | TGI (M19-MEL melanoma): > 100 µM | TGI (TK-10 renal): > 100 µM | TGI (IGROV1 ovarian): > 100 µM | TGI (HOP-92 NSCLC): > 92.9 µM | TGI (A549 NSCLC): > 100 µM | TGI (SK-MEL-2 melanoma): > 100 µM | TGI (K-562 leukemia): > 77.6 µM | TGI (DMS 273 small cell lung): > 100 µM | TGI (NCI-H23 lung): > 100 µM | TGI (KM12 colon): > 100 µM | TGI (SNB-78 CNS): > 100 µM | TGI (OVCAR-4 ovarian): > 100 µM | TGI (RPMI-8226 leukemia): > 68.8 µM | TGI (UACC-62 melanoma): > 100 µM | TGI (SW-620 colon): > 45.1 µM | TGI (HCC-2998 colon): > 100 µM | TGI (ACHN renal): > 100 µM | TGI (HT29 colon): > 64.2 µM | TGI (XF 498 CNS): > 77.8 µM | TGI (OVCAR-3 ovarian): > 89.7 µM | TGI (U251 CNS): > 100 µM
